These results are taken from BindingDB's records for patent US11078201 (Nimbus Saturn, 2021).

Some results are limits rather than exact numbers.

The assay concerns the target Mitogen-activated protein kinase kinase kinase kinase 1 (Homo sapiens, UniProt Q92918). In words: Biochemical Enzyme Assay. As to the method:
HPK1 biochemical enzyme assay: HPK1 enzyme inhibition was measured using a microfluidic mobility shift assay. […] Test compounds were titrated in ten point curves (top final assay concentration […]), and preincubated with enzyme/substrate mix for 30 min prior to initiation of the reaction by addition of ATP (1 mM final concentration) and substrate (1 μM final concentration; Carna Biosciences) diluted in assay buffer supplemented by MgCl2 (final assay concentration of 5 mM). Following 60 min incubation at RT, the reaction was terminated by addition of 60 µl/well termination buffer (Carna Biosciences) and signal determination using a Caliper EZ Reader (Perkin Elmer, UK).

Mitogen-activated protein kinase kinase kinase kinase 1, sequence (Q92918 whole entry): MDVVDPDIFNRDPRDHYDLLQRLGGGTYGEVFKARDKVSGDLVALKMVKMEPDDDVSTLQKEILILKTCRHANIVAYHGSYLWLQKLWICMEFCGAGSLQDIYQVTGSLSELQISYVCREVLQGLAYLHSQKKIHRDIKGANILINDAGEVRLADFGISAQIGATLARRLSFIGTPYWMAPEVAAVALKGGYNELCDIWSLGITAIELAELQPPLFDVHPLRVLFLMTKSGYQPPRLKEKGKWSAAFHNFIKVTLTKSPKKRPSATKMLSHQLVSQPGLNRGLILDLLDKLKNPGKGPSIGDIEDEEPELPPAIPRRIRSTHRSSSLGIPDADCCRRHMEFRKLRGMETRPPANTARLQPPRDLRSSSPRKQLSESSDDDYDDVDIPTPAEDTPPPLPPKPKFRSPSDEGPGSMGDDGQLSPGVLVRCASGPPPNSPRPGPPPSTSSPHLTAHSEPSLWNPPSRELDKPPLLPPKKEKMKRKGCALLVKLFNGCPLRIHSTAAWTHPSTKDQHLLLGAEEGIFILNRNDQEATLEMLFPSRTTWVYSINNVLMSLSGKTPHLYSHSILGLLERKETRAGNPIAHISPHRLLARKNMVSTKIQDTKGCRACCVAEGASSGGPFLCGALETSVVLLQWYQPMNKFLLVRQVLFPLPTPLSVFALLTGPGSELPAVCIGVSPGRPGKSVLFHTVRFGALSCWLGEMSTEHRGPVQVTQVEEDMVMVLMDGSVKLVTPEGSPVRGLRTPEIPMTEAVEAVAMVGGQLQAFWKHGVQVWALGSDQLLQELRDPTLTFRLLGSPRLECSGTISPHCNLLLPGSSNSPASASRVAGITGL

In the case of `O=C1NCc2c(-c3cnc4cc(F)ccn34)ccc(Nc3ccc(N4C[C@@H]5CC[C@@H](C5)C4)cn3)c21` [US11078201, Compound I-404], the IC50 is < 100 nM. To `O=C1NCc2c(-c3cnn4nccnc34)ccc(Nc3ccc(N4CCC(O)CC4)cn3)c21` [US11078201, Compound I-157] belongs < 100 nM. As for `Cn1cnc2c(-c3ccc(Nc4ccc(N5CCNCC5)cn4)c4c3CNC4=O)ccnc21` [US11078201, Compound I-122], the figure is < 100 nM; as for `CN(C)Cc1nc(Nc2ccc(-c3cnc4cc(F)ccn34)c3c2C(=O)NC3)ccc1C1CC[C@@H](F)[C@H](O)C1` (stereo partly specified) [US11078201, Compound I-700], < 100 nM; as for `CN[C@@H]1CCCN(c2ccc(Nc3ccc(-c4ccnc5c4c(C)cn5C)c4c3C(=O)NC4)nc2)C1` [US11078201, Compound I-100], < 100 nM. As for `CN1CCN(C2=CNC(Nc3cnc(-c4c(-c5ccccc5)[nH]c5ccccc45)c4c3C(=O)NC4)C=C2)CC1` (stereo unspecified) [US11078201, Compound I-141], the figure is < 100 nM; as for `CO[C@@H]1CN(c2ccc(Nc3ccc(-c4cnn5c4CCCC5)c4c3C(=O)NC4)nc2)[C@@H](CO)CO1` [US11078201, Compound I-571], < 100 nM. Regarding `O=C1NCc2c(-c3cnc4cc(F)ccn34)ccc(Nc3ccc(N4CC5CCC(C5)C4)cn3)c21` [US11078201, Compound I-405], the IC50 is < 100 nM. To `Cn1ccc2c(-c3ncc(NC4C=CC(C5CCOC5)=C(CN5CCCC5)N4)c4c3CNC4=O)ccnc21` (stereo unspecified) [US11078201, Compound I-552] belongs < 100 nM; to `CN1C=CC2=C(c3ncc(Nc4cccc(N5CC[C@H]6CNC[C@H]65)n4)c4c3CNC4=O)C=CNC21` (stereo partly specified) [US11078201, Compound I-440], < 100 nM; to `CN(C)Cc1nc(Nc2ccc(-c3cnc4cc(F)ccn34)c3c2C(=O)NC3)ccc1C1CC[C@H](F)[C@@H](O)C1` (stereo partly specified) [US11078201, Compound I-701], < 100 nM.
